Data on 23 compounds can be found in US20260000692A1, “Substituted N-(Pyridin-2-yl)Acetamide Derivatives as CDK12/13 Inhibitors” (Aurigene Oncology Limited, priority 2022, published 2026).

The assay has as its target CDK12 (Homo sapiens, UniProt Q9NYV4). The assay can be described thus: Biochemical assay for CDK12 (LANCE TR-FRET, IC50 determination). Conditions: for IC50: CDK12, IC50 class, read-out: IC50 μM (in range); for inhibition at 10 µM: read-out: CDK12 % Inhibition @ 10 μM. Summed up:
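30 nM CDK12 phosphorylated 100 nM ULight-4E-BP1 (Thr37/Thr46) peptide at 100 µM ATP, as printed, in HEPES pH 7.5 buffer with MgCl2 and DTT. Compound and enzyme were preincubated 60 min, then reacted 60 min at room temperature before stopping with EDTA and Eu anti-phospho antibody. TR-FRET 665/615 ratio gave sigmoidal IC50 fits.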

Some results are limits rather than exact numbers.

CDK12, sequence (Q9NYV4 whole entry): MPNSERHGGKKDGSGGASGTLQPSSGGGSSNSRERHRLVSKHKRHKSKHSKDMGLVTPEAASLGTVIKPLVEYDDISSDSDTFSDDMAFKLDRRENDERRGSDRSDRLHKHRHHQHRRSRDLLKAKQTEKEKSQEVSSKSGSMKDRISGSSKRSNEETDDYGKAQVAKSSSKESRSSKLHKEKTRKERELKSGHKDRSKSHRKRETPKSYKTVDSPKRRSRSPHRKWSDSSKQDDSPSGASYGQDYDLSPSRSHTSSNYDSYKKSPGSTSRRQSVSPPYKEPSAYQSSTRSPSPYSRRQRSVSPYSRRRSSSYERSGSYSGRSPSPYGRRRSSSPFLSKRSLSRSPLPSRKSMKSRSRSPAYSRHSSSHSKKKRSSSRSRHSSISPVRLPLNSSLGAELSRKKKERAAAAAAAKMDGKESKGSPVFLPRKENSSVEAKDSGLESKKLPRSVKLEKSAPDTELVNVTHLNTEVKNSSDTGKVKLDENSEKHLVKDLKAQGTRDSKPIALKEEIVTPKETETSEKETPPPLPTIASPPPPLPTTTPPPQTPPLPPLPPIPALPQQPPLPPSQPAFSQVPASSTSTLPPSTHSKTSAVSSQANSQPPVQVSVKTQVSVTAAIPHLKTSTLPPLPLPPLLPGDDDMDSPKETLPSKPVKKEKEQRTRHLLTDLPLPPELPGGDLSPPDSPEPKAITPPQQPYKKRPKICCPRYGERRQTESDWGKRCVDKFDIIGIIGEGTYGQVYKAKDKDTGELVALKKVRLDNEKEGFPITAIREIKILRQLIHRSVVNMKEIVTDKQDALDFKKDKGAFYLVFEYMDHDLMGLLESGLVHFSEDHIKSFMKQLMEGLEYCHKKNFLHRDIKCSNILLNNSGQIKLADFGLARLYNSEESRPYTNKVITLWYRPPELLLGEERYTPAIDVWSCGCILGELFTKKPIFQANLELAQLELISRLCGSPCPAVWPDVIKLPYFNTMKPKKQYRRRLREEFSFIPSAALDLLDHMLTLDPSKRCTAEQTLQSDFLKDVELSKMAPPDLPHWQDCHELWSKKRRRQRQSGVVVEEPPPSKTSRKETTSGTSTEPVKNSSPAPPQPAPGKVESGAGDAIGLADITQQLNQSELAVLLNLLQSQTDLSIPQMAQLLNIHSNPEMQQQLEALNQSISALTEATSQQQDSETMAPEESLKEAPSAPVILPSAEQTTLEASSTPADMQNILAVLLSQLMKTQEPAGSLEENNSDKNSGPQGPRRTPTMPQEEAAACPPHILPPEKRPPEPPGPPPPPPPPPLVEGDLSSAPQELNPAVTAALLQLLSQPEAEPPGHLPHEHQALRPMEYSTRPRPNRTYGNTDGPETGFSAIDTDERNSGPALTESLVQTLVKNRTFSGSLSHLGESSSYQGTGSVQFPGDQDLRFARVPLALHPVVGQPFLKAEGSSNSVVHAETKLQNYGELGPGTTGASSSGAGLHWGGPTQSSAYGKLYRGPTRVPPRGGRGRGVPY
CDK12, sequence (O75909 whole entry partner): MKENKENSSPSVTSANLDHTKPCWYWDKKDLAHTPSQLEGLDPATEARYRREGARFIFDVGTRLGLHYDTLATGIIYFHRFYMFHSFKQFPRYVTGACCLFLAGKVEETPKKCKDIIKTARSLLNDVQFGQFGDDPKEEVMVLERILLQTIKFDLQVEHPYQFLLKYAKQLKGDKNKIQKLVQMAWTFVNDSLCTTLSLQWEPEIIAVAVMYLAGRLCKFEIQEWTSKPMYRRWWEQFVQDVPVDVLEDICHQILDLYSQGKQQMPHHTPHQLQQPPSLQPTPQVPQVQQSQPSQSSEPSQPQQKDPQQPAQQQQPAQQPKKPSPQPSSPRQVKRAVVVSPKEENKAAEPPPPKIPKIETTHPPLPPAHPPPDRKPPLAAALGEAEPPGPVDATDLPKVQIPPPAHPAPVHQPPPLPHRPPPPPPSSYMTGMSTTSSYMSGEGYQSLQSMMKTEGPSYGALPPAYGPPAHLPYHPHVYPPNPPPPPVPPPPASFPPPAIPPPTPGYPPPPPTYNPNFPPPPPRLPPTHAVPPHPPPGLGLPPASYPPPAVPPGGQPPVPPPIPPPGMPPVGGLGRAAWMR

Take `COc1cc(NC(=O)Cc2ccc(-c3nc(C#N)ccc3C)nc2)ncc1Cl` [Compound 160, N-(5-chloro-4-methoxypyridin-2-yl)-2-(6′-cyano-3′-methyl-[2,2′-bipyridin]-5-yl)acetamide]: the IC50 was > 0.1 µM. Also, where the note is “compound at 10 μM”, the inhibition at 10 µM is 76%.
The corresponding values for `COc1cc(C#N)nc(-c2ccc(CC(=O)Nc3cc(OC)c(Cl)cn3)cn2)c1` [Compound 165, N-(5-chloro-4-methoxypyridin-2-yl)-2-(6′-cyano-4′-methoxy-[2,2′-bipyridin]-5-yl)acetamide] are 0.01 to 0.1 µM and 72%.
In the same order, the values of `COCCOc1cc(C#N)nc(-c2ccc(CC(=O)Nc3cc(OC)c(Cl)cn3)cn2)c1` [Compound 169, N-(5-chloro-4-methoxypyridin-2-yl)-2-(6′-cyano-4′-(2-methoxyethoxy)-[2,2′-bipyridin]-5-yl)acetamide] are 0.01 to 0.1 µM and 95%.
For the compound `COc1cc(NC(=O)Cc2ccc(-c3cc(OCCN(C)C)cc(C#N)n3)nc2)ncc1Cl` [Compound 170, N-(5-chloro-4-methoxypyridin-2-yl)-2-(6′-cyano-4′-(2-(dimethylamino)ethoxy)-[2,2′-bipyridin]-5-yl)acetamide], the concentration for half-maximal inhibition (IC50) lay in the range of 0.01 to 0.1 µM. The inhibition at 10 µM (compound at 10 μM) came out at 90%.
Turning to `COc1cc(NC(=O)Cc2ccc(-c3cc(OC4CCN(C)C4)cc(C#N)n3)nc2)ncc1Cl` (stereo not shown) [Compound 171, N-(5-chloro-4-methoxypyridin-2-yl)-2-(6′-cyano-4′-((1-methylpyrrolidin-3-yl)oxy)-[2,2′-bipyridin]-5-yl)acetamide], the IC50 is < 0.01 µM. In addition, for the setting “compound at 10 μM”, the inhibition at 10 µM was determined as 83%.
For the compound `COc1cc(NC(=O)Cc2ccc(-c3cc(N(C)CCN(C)C)cc(C#N)n3)nc2)ncc1Cl` [Compound 173], the IC50 was 0.01 to 0.1 µM. In addition, the inhibition at 10 µM (compound at 10 μM) came to 90%.
For `COc1cc(NC(=O)Cc2ccc(-c3cc(C(C)(C)O)cc(C#N)n3)nc2)ncc1Cl` [Compound 175, N-(5-chloro-4-methoxypyridin-2-yl)-2-(6′-cyano-4′-(2-hydroxypropan-2-yl)-[2,2′-bipyridin]-5-yl)acetamide], the IC50 is 0.01 to 0.1 µM. For the same compound, the inhibition at 10 µM (compound at 10 μM) was determined as 97%.
Regarding `COc1cc(NC(=O)Cc2ccc(-c3cc(OC4CCN(C)CC4)cc(C#N)n3)nc2)ncc1Cl` [Compound 176, N-(5-chloro-4-methoxypyridin-2-yl)-2-(6′-cyano-4′-((1-methylpiperidin-4-yl)oxy)-[2,2′-bipyridin]-5-yl)acetamide], the IC50 was in the range of 0.01 to 0.1 µM. Moreover, where the note is “compound at 10 μM”, the inhibition at 10 µM worked out at 96%.
Turning to `COc1cc(NC(=O)Cc2ccc(-c3cc(N4CC5CC4CN5C)cc(C#N)n3)nc2)ncc1Cl` (stereo not shown) [Compound 181, N-(5-chloro-4-methoxypyridin-2-yl)-2-(6′-cyano-4′-(5-methyl-2,5-diazabicyclo[2.2.1]heptan-2-yl)-[2,2′-bipyridin]-5-yl)acetamide], the IC50 was in the range of 0.01 to 0.1 µM. The inhibition at 10 µM (compound at 10 μM) is 92%.
On to `COc1cc(NC(=O)Cc2ccc(-c3cc(N4CC(O)C4)cc(C#N)n3)nc2)ncc1Cl` [Compound 182, N-(5-chloro-4-methoxypyridin-2-yl)-2-(6′-cyano-4′-(3-hydroxyazetidin-1-yl)-[2,2′-bipyridin]-5-yl)acetamide], for which the IC50 was > 0.1 µM. Also, the inhibition at 10 µM (compound at 10 μM) was 75%.
Regarding `COc1cc(NC(=O)Cc2ccc(-c3cc(OC4COC4)cc(C#N)n3)nc2)ncc1Cl` [Compound 184, N-(5-chloro-4-methoxypyridin-2-yl)-2-(6′-cyano-4′-(oxetan-3-yloxy)-[2,2′-bipyridin]-5-yl)acetamide], the IC50 lay in the range of 0.01 to 0.1 µM. Also, under “compound at 10 μM”, the inhibition at 10 µM came to 80%.
`COc1cc(NC(=O)Cc2ccc(-c3ccc(C#N)cc3)nc2)ncc1Cl` [Compound 188, N-(5-chloro-4-methoxypyridin-2-yl)-2-(6-(4-cyanophenyl)pyridin-3-yl)acetamide]: the IC50 was > 0.1 µM. Moreover, the inhibition at 10 µM (compound at 10 μM) amounted to 65%.
For `COc1cc(NC(=O)Cc2ccc(-c3cccc(C#N)c3)nc2)ncc1Cl` [Compound 189, N-(5-chloro-4-methoxypyridin-2-yl)-2-(6-(3-cyanophenyl)pyridin-3-yl)acetamide], the IC50 is > 0.1 µM. The inhibition at 10 µM (compound at 10 μM) came out at 82%.
The corresponding values for `CNC(=O)[C@H](C)Oc1cc(NC(=O)Cc2ccc(-c3cccc(C#N)n3)nc2)ncc1Cl` [Compound 190, 2-((5-chloro-2-(2-(6′-cyano-[2,2′-bipyridin]-5-yl)acetamido)pyridin-4-yl)oxy)-N-methylpropanamide] are < 0.01 µM and 87%.
The corresponding values for `COc1cc(NC(=O)Cc2ccc(-c3cc(N4CCN(C)CC4)cc(C#N)n3)nc2)ncc1Cl` [Compound 191, N-(5-chloro-4-methoxypyridin-2-yl)-2-(6′-cyano-4′-(4-methylpiperazin-1-yl)-[2,2′-bipyridin]-5-yl)acetamide] are 0.01 to 0.1 µM and 94%.
Consider `COc1cc(NC(=O)Cc2ccc(-c3cc(N4CCC(C)(O)CC4)cc(C#N)n3)nc2)ncc1Cl` [Compound 192, N-(5-chloro-4-methoxypyridin-2-yl)-2-(6′-cyano-4′-(4-hydroxy-4-methylpiperidin-1-yl)-[2,2′-bipyridin]-5-yl)acetamide], for which the IC50 lay in the range of 0.01 to 0.1 µM. Also, the inhibition at 10 µM (compound at 10 μM) was found to be 88%.
In the same order, the values of `COc1cc(NC(=O)Cc2ccc(-c3cc(N4CC(OC)C4)cc(C#N)n3)nc2)ncc1Cl` [Compound 193, N-(5-chloro-4-methoxypyridin-2-yl)-2-(6′-cyano-4′-(3-methoxyazetidin-1-yl)-[2,2′-bipyridin]-5-yl)acetamide] are > 0.1 µM and 68%.
Consider `COc1cc(NC(=O)Cc2ccc(-c3cc(N4CCC(C)(O)C4)cc(C#N)n3)nc2)ncc1Cl` (stereo not shown) [Compound 194, N-(5-chloro-4-methoxypyridin-2-yl)-2-(6′-cyano-4′-(3-hydroxy-3-methylpyrrolidin-1-yl)-[2,2′-bipyridin]-5-yl)acetamide], for which the IC50 is > 0.1 µM. For the same compound, the inhibition at 10 µM (compound at 10 μM) was 94%.
In the same order, the values of `COc1cc(NC(=O)Cc2ccc(-c3cc(N4C[C@H]5CC[C@@H](C4)O5)cc(C#N)n3)nc2)ncc1Cl` [Compound 195, 2-(4′-((1R,5S)-8-oxa-3-azabicyclo[3.2.1]octan-3-yl)-6′-cyano-[2,2′-bipyridin]-5-yl)-N-(5-chloro-4-methoxypyridin-2-yl)acetamide] are 0.01 to 0.1 µM and 84%.
In the same order, the values of `COc1cc(NC(=O)Cc2ccc(-c3cc(O[C@H]4CCOC4)cc(C#N)n3)nc2)ncc1Cl` [Compound 196, (S)-N-(5-chloro-4-methoxypyridin-2-yl)-2-(6′-cyano-4′-((tetrahydrofuran-3-yl)oxy)-[2,2′-bipyridin]-5-yl)acetamide] are 0.01 to 0.1 µM and 89%.
For `COc1cc(NC(=O)Cc2ccc(-c3cc(O[C@H]4CCOC4)cc(C#N)n3)nc2)ncc1Cl` [Compound 197, (S)-N-(5-chloro-4-methoxypyridin-2-yl)-2-(6′-cyano-4′-((tetrahydrofuran-3-yl)oxy)-[2,2′-bipyridin]-5-yl)acetamide], the IC50 was in the range of 0.01 to 0.1 µM. The “CDK12 % Inhibition @ 10 μM” value (compound at 10 μM, 10 µM) is 87%.
With `COc1cc(NC(=O)Cc2ccc(-c3cc(OC4CCN(C)CC4F)cc(C#N)n3)nc2)ncc1Cl` (stereo not shown) [Compound 198, N-(5-chloro-4-methoxypyridin-2-yl)-2-(6′-cyano-4′-((3-fluoro-1-methylpiperidin-4-yl)oxy)-[2,2′-bipyridin]-5-yl)acetamide], the IC50 fell in the range of 0.01 to 0.1 µM. Besides, the inhibition at 10 µM (compound at 10 μM) amounted to 100%.
The corresponding values for `COc1cc(NC(=O)Cc2ccc(-c3cc(OC4CCCN(C)C4)cc(C#N)n3)nc2)ncc1Cl` (stereo not shown) [Compound 199, N-(5-chloro-4-methoxypyridin-2-yl)-2-(6′-cyano-4′-((1-methylpiperidin-3-yl)oxy)-[2,2′-bipyridin]-5-yl)acetamide] are < 0.01 µM and 88%.
